In one experiment the target is c-Kit (Homo sapiens (Human), UniProt P10721). Kind of experiment: Inhibition of c-Kit kinase activity (HTRF KinEASE-TK). The note with it: biochemical, HTRF KinEASE-TK. It is filed as biochemical. The gist of the method:
(§1)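 Recombinant kinases (2 nM CSF1R and c-Kit, 10 nM PDGFRα/β, 2× working) preincubated 1 h with compound in 50 mM HEPES pH 7.4, 5 mM MgCl2 (c-Kit) or 10 mM (others), 2 mM MnCl2; 2× ATP: c-Kit 16 μM, PDGFRα 1 μM, PDGFRβ 40 μM, CSF1R 20 μM. 120 min reaction at rt; TR-FRET 665/620 nm; IC50 by 4-parameter fit.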
On the technique in general: Time-resolved FRET reads energy transfer from a long-lived donor to a nearby acceptor.

In a further experiment the target is PDGFRα (Homo sapiens (Human), UniProt P16234). In words: Inhibition of PDGFRα kinase activity (HTRF KinEASE-TK). The note with it: biochemical, HTRF KinEASE-TK. A digest of the protocol: as §1
Sequence of PDGFRα (P16234 24-1089): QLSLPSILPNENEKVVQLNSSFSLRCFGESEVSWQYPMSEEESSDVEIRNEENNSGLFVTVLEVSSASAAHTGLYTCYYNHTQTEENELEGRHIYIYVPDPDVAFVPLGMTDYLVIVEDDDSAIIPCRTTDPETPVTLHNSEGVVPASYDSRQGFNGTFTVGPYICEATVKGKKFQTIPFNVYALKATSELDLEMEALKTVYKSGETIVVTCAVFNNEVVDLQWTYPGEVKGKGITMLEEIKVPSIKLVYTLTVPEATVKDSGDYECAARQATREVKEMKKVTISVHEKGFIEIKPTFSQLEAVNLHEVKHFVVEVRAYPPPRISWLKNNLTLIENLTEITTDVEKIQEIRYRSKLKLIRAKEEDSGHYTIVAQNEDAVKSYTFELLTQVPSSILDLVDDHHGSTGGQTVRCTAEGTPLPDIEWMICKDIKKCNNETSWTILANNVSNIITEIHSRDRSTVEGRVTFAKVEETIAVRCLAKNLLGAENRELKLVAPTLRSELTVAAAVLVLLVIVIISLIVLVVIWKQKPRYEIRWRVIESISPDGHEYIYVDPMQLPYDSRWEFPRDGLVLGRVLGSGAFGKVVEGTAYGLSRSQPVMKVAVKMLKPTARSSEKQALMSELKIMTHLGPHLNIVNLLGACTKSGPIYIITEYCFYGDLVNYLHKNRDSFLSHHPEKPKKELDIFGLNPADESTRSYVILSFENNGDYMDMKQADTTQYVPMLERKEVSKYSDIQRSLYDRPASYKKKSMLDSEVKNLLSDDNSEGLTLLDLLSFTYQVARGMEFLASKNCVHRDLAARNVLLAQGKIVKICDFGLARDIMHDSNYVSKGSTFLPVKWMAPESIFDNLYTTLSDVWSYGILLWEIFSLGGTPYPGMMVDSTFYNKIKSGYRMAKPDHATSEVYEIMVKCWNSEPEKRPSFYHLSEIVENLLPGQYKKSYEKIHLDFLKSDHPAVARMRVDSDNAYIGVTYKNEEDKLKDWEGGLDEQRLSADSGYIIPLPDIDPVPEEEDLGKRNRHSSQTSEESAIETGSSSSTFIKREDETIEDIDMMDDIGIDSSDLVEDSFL
The target in the next experiment is PDGFRβ (Homo sapiens (Human), UniProt P09619). Kind of experiment: Inhibition of PDGFRβ kinase activity (HTRF KinEASE-TK). The note with it: biochemical, HTRF KinEASE-TK. The gist of the method:
as §1

The target in a further experiment is CSF1R (Homo sapiens (Human), UniProt P07333). Kind of experiment: Inhibition of CSF1R kinase activity (HTRF KinEASE-TK). The note with it: biochemical, HTRF KinEASE-TK. A digest of the protocol:
as §1

The subject of experiment [1] is Phospho-KIT (Y703) in M07e cells. In words: Phospho-KIT (Y703) cellular assay in M07e cells. It is filed as cell-based. The conditions noted are these: M-07e, M07e cells. A digest of the protocol:
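Serum-starved M07e cells preincubated 50 min at 37° C with 11-point half-log compound titration, then stimulated 10 min with SCF at 90.9 ng/mL final. Fixed, permeabilized cells stained for phospho-KIT Y703 and read by flow cytometry (live-gated geometric mean); IC50 by 4-parameter fit normalized to DMSO and positive control.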

The mark [2] stands for this setting: Phospho-KIT (Y703), read-out: M07e Cell IC50.
Setting [3] is: read-out: Phospho-KIT (Y703) cellular IC50.

Where two headings read alike, the source gives them in different places. Where only a bound is given, the exact number is not on record here.

Sequence of c-Kit (P10721 26-976): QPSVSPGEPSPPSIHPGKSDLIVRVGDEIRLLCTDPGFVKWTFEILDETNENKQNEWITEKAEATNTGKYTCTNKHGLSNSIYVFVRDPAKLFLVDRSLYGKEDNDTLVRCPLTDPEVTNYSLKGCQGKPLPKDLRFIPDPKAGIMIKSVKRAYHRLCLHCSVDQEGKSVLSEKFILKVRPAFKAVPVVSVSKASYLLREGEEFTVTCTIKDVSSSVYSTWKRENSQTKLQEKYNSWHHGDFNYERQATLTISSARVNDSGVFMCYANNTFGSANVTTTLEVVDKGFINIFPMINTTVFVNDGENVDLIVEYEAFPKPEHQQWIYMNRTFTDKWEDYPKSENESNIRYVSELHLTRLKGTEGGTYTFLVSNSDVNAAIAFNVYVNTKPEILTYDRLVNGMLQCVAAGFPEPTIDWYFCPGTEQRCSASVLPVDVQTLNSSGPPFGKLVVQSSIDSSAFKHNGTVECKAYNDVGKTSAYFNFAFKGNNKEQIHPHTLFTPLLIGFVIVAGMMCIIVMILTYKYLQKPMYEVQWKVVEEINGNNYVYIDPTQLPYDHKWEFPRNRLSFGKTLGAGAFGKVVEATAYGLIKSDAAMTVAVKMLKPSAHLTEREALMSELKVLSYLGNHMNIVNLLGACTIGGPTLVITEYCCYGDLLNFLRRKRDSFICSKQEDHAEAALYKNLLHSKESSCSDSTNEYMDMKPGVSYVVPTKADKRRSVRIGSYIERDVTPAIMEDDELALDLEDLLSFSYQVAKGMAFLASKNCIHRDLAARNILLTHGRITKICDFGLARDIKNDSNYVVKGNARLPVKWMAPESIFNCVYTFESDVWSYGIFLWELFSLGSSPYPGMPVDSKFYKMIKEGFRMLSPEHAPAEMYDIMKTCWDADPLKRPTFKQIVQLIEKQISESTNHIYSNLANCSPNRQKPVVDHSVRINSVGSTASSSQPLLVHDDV
Sequence of CSF1R (P07333 20-972): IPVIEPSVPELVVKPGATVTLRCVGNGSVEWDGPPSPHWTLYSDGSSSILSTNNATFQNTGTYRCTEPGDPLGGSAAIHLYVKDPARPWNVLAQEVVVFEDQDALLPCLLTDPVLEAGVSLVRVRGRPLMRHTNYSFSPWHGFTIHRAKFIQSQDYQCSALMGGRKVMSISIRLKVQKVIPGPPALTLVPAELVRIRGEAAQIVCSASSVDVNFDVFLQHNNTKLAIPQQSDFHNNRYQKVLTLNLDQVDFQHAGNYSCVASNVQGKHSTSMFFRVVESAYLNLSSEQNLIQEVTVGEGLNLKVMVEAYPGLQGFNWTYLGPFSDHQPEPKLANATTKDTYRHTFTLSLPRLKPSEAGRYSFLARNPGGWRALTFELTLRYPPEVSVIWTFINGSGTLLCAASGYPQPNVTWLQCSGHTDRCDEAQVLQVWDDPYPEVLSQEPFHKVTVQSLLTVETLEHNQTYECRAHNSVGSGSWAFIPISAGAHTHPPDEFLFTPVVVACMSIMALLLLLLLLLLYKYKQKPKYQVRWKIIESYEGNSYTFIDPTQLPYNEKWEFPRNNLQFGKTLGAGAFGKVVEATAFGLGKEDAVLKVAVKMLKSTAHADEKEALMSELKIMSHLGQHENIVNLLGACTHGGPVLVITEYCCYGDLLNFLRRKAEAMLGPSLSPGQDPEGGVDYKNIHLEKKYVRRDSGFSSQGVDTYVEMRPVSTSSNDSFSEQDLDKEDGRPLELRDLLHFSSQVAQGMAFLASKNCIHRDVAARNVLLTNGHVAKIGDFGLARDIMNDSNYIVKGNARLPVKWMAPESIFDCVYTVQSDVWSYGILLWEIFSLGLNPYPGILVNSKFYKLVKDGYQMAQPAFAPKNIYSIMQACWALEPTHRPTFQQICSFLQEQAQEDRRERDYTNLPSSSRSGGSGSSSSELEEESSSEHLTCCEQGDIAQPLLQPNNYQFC
Sequence of PDGFRβ (P09619 33-1106): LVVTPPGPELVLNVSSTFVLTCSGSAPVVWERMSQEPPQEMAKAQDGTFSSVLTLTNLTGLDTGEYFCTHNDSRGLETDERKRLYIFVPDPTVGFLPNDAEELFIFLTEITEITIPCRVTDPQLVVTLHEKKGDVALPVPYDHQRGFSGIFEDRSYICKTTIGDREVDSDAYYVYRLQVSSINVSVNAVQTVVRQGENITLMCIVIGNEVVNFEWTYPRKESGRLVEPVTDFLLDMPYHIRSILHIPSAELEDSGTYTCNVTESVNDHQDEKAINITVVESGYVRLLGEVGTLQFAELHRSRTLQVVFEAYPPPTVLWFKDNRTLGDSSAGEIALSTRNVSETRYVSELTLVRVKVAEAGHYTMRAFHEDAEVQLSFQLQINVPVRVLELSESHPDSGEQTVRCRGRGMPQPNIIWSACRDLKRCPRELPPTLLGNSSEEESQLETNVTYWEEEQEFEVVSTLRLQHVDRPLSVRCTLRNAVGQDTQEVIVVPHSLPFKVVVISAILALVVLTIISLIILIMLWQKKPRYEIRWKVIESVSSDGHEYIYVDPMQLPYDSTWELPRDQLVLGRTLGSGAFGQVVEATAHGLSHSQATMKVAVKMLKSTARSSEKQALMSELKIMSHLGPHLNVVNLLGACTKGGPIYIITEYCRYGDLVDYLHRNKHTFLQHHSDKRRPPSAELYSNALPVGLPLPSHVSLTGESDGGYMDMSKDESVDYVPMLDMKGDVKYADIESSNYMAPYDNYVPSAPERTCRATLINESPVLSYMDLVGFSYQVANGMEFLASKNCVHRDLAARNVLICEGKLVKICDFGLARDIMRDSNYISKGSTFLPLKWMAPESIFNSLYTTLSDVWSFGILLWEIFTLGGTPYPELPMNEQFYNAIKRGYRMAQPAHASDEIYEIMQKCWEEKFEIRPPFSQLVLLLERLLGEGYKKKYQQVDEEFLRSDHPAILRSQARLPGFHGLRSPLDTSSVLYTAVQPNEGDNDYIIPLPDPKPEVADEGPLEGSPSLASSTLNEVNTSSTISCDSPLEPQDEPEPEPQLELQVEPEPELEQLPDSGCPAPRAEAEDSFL

For the molecule `CCc1ccc(NC(=O)c2cc(NC(=O)c3cnc(N)s3)c(F)cc2F)nc1` [Example 214, 2-Amino-N-[5-[(5-ethylpyridin-2-yl)carbamoyl]-2,4-difluorophenyl]-1,3-thiazole-5-carboxamide], the concentration for half-maximal inhibition (IC50) (as a rule, the concentration that inhibits the measured activity by half) is < 100 nM at c-Kit; > 1000 nM against PDGFRα; > 1000 nM on PDGFRβ; > 1000 nM against CSF1R; < 100 nM in experiment [1] (setting [2]).

As for `Cc1cc(F)c(C(=O)Nc2ccc(F)cc2)cc1NC(=O)c1cnc(N)s1` [Example 233, 2-Amino-N-[4-fluoro-5-[(4-fluorophenyl)carbamoyl]-2-methylphenyl]-1,3-thiazole-5-carboxamide], the half-inhibitory concentration (IC50) against c-Kit was < 100 nM; on PDGFRα, > 1000 nM; at PDGFRβ, > 1000 nM; against CSF1R, > 1000 nM; in experiment [1] (setting [2]), < 100 nM.

Regarding `Cc1cc(F)c(C(=O)Nc2ccc(COC(F)F)cn2)cc1NC(=O)c1cnc(N)s1` [Example 254, 2-Amino-N-[5-[[5-(difluoromethoxymethyl)pyridin-2-yl]carbamoyl]-4-fluoro-2-methylphenyl]-1,3-thiazole-5-carboxamide], the IC50 at c-Kit is < 100 nM; against PDGFRα, > 1000 nM; against PDGFRβ, < 100 nM; on CSF1R, 100 to 1000 nM; in experiment [1] (setting [2]), < 100 nM.

For the molecule `Cc1ncc(C(=O)Nc2cc(C(=O)NCc3ccc(F)cc3)c(F)cc2C)s1` [Example 262, N-[4-fluoro-5-[(4-fluorophenyl)methylcarbamoyl]-2-methylphenyl]-2-methyl-1,3-thiazole-5-carboxamide], the half-maximal inhibitory concentration (IC50) is < 100 nM at c-Kit; > 1000 nM against PDGFRα; > 1000 nM against PDGFRβ; > 1000 nM on CSF1R; < 100 nM in experiment [1] (setting [3]).

`Cc1ncc(C(=O)Nc2cc(C(=O)NCc3ccc(F)cc3F)c(F)cc2C)s1` [Example 263, N-[5-[(2,4-difluorophenyl)methylcarbamoyl]-4-fluoro-2-methylphenyl]-2-methyl-1,3-thiazole-5-carboxamide]: the IC50 against c-Kit was < 100 nM; against PDGFRα it was > 1000 nM; against PDGFRβ, > 1000 nM; on CSF1R, > 1000 nM; in experiment [1] (setting [3]), < 100 nM.

Turning to `Cc1ncc(C(=O)Nc2cc(C(=O)NCc3cc(F)cc(F)c3)c(F)cc2C)s1` [Example 264, N-[5-[(3,5-difluorophenyl)methylcarbamoyl]-4-fluoro-2-methylphenyl]-2-methyl-1,3-thiazole-5-carboxamide], the IC50 is < 100 nM at c-Kit; > 1000 nM against PDGFRα; > 1000 nM against PDGFRβ; > 1000 nM against CSF1R; < 100 nM in experiment [1] (setting [3]).

With `Cc1ncc(C(=O)Nc2cc(C(=O)NCc3cccc(F)c3F)c(F)cc2C)s1` [Example 265, N-[5-[(2,3-difluorophenyl)methylcarbamoyl]-4-fluoro-2-methylphenyl]-2-methyl-1,3-thiazole-5-carboxamide], the IC50 against c-Kit was < 100 nM; at PDGFRα, > 1000 nM; at PDGFRβ, > 1000 nM; on CSF1R it was > 1000 nM; in experiment [1] (setting [3]), < 100 nM.

With `Cc1ncc(C(=O)Nc2cc(C(=O)NCc3ccc(F)c(F)c3)c(F)cc2C)s1` [Example 266, N-[5-[(3,4-difluorophenyl)methylcarbamoyl]-4-fluoro-2-methylphenyl]-2-methyl-1,3-thiazole-5-carboxamide], the IC50 is < 100 nM against c-Kit; > 1000 nM on PDGFRα; > 1000 nM against PDGFRβ; > 1000 nM on CSF1R; < 100 nM in experiment [1] (setting [3]).

Take `Cc1ncc(C(=O)Nc2cc(C(=O)NCc3ccc(OC(F)(F)F)cc3)c(F)cc2C)s1` [Example 267, N-[4-fluoro-2-methyl-5-[[4-(trifluoromethoxy)phenyl]methylcarbamoyl]phenyl]-2-methyl-1,3-thiazole-5-carboxamide]: the 50% inhibitory concentration (IC50) against c-Kit is 100 to 1000 nM; against PDGFRα, > 1000 nM; on PDGFRβ it was > 1000 nM; on CSF1R, > 1000 nM; in experiment [1] (setting [3]), < 100 nM.

`Cc1ncc(C(=O)Nc2cc(C(=O)NCc3ccc(C(F)(F)F)cc3)c(F)cc2C)s1` [Example 268, N-[4-fluoro-2-methyl-5-[[4-(trifluoromethyl)phenyl]methylcarbamoyl]phenyl]-2-methyl-1,3-thiazole-5-carboxamide]: the half-inhibitory concentration (IC50) was < 100 nM against c-Kit; > 1000 nM against PDGFRα; > 1000 nM on PDGFRβ; > 1000 nM against CSF1R; < 100 nM in experiment [1] (setting [3]).

With `Cc1ncc(C(=O)Nc2cc(C(=O)NCc3ccc(OC(F)(F)F)c(F)c3)c(F)cc2C)s1` [Example 269, N-[4-fluoro-5-[[3-fluoro-4-(trifluoromethoxy)phenyl]methylcarbamoyl]-2-methylphenyl]-2-methyl-1,3-thiazole-5-carboxamide], the half-inhibitory concentration (IC50) at c-Kit was 100 to 1000 nM; at PDGFRα, > 1000 nM; on PDGFRβ, > 1000 nM; on CSF1R, > 1000 nM; in experiment [1] (setting [3]), < 100 nM.

For `Cc1ncc(C(=O)Nc2cc(C(=O)NCc3ccc(OC(F)(F)F)cc3F)c(F)cc2C)s1` [Example 270], the IC50 was 100 to 1000 nM against c-Kit; > 1000 nM against PDGFRα; > 1000 nM against PDGFRβ; > 1000 nM at CSF1R; 100 to 1000 nM in experiment [1] (setting [3]).

For the origin of these results see US20250145606A1 (Arcus Biosciences, Inc., priority 2023, published 2025).
